Results on 20 compounds are retold here after patent publication US12570648B2, “6,7-dihydro-5H-pyrido[2,3-c]pyridazine derivatives and related compounds as Bcl-xL protein inhibitors and pro-apoptotic agents for treating cancer” (LES LABORATOIRES SERVIER, priority 2019, dated 2026).

The term Ki denotes a measure of affinity in units of concentration, obtained from inhibition or displacement. A word on the IC50: it is the concentration that gives 50% inhibition. Low readings indicate inhibition by little substance, high ones a need for much substance.

Test [1] concerns the target GST(1-218)-(FACTOR_XA)-hsBCLXL(2-209) (Homo sapiens (Human), UniProt Q07817). Put plainly: Fluorescence polarisation assay. The format is binding. On the procedure: Fluorescence polarization measures the rotation of a fluorescing species in solution, the larger the molecule the more polarized the fluorescence emission.
(GST UniProtKB® primary accession number P08515 and BCLXL UniProtKB® primary accession number Q07817-1), • resulting in an increase in anisotropy. If a compound is added which competitively binds to the same site as the probe, thereby releasing it, anisotropy decreases due to the increased amount of free probe.
An 11-point serial dilution of each compound was prepared in DMSO, the final buffer conditions were 10 mM 4-(2-hydroxyethyl)-1-piperazineethanesulfonic acid [HEPES], 150 mM NaCl, 0.05% Tween 20, pH 7.4 and 5% DMSO. The final protein concentration in the assay was 20 nM with the fluorescent probe present at 10 nM. […] 1; 37 (WebServer issue): W441-W445.
On the technique in general: Fluorescence polarisation rises when a labelled molecule tumbles more slowly, as on binding a larger partner.

The target in test [2] is His-His-(EK)-hsBCLXL(2-197)[N197C] (Homo sapiens (Human), UniProt Q07817, N197C). Put plainly: Fluorescence quenching assay. The format is binding. The following applies: 1 nM Cy5-labelled protein, 400 nM PUMA peptide, 2 hours at 23° C.; KI determined from IC50. Summed up: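 Cy5-labelled BCL-xL (1 nM) with TQ5WS quencher-labelled PUMA peptide (400 nM); displacement by compound (11-point dilution) raises fluorescence. Buffer 10 mM HEPES, 150 mM NaCl, 0.05% Tween 20, pH 7.4, 5% DMSO; 2 h at 23° C, Ex 620/Em 680 nm. Ki derived from IC50.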

In the next test the test system is H146 cells. Put plainly: H146 cell viability using MTT assay. The format is cell-based. The note with it: Homo sapiens, NCI-H146, 48 h exposure. The method, then: MTT colorimetric assay is based on the mitochondrial reduction of tetrazolium salt by living cells. The viable cell number is proportional to the production of formazan salts, which can be read spectrophotometrically at 540 nm.
MOLT-4 and H146 cells were purchased from ATCC and cultivated in RPMI 1640 supplemented with 10% heat inactivated fetal bovine serum, penicillin (100 IU/ml), streptomycin (100 μg/ml) and L-glutamine (2 mM). Cells were cultured at 37° C. in a humidified atmosphere containing 5% CO2. Cells were seeded in 96 microwell plates (150p per well) and exposed to the compounds for 48 h (3.16 fold serially diluted; 9 concentrations each, triplicates). At the end of incubation time, 15 μL of MTT solution (5 mg/ml) were added per well and the cells were incubated for another 4 h. Then, 100 μL of 10% Sodium Dodecyl Sulfate (SDS)/HCl 10 mM were added per well and the plate was incubated overnight, before measurement of optical density at 540 nm. IC50s were calculated using standard four-parametric curve fitting.
Background: Tetrazolium dyes change colour on reduction, which living cells bring about.

Another test has as its system MOLT-4 cells. The test can be described thus: MOLT-4 cell viability using MTT assay. The note with it: Homo sapiens, MOLT-4, 48 h, 48 h exposure. The format is cell-based. On the procedure: MTT colorimetric assay is based on the mitochondrial reduction of tetrazolium salt by living cells.
Cells were cultured at 37° C. in a humidified atmosphere containing 5% CO2. […] At the end of incubation time, 15 μL of MTT solution (5 mg/ml) were added per well and the cells were incubated for another 4 h. […] IC50s were calculated using standard four-parametric curve fitting.

Sequence of His-His-(EK)-hsBCLXL(2-197)[N197C] (Q07817 2-197 N197C): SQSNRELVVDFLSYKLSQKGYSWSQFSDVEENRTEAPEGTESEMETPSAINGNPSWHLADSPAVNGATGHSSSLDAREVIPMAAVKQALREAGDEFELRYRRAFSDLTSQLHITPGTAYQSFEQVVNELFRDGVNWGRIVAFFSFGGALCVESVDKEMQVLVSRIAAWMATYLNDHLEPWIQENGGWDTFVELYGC
Sequence of GST(1-218)-(FACTOR_XA)-hsBCLXL(2-209) (Q07817 other isoform, or with tags, fused parts or gaps): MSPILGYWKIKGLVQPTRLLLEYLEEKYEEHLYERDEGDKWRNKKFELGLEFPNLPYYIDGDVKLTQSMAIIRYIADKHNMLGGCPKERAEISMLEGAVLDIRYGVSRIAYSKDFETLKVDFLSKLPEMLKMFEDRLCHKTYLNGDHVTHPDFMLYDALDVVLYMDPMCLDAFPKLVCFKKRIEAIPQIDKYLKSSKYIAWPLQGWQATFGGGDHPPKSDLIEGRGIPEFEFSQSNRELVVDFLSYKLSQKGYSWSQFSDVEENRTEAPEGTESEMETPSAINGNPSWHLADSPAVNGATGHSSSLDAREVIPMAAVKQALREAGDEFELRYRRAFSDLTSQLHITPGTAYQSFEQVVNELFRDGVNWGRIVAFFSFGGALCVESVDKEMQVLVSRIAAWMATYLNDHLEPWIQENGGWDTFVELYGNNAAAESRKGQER

As for `O=C(O)c1csc(-n2ccc3cc(Nc4nc5ccccc5s4)cnc32)n1` [Example 6, 2-{5-[(1,3-Benzothiazol-2-yl)amino]-1H-pyrrolo[2,3-b]pyridin-1-yl}-1,3-thiazole-4-carboxylic acid], the Ki in test [1] is above 10000 nM.

`O=C(O)c1csc(N2CCc3cc(Nc4nc5ccccc5s4)ccc32)n1` [Example 3, 2-{5-[(1,3-Benzothiazol-2-yl)amino]-2,3-dihydro-1H-indol-1-yl}-1,3-thiazole-4-carboxylic acid] had a Ki in test [1] of 36000 nM.

`O=C(O)c1csc(-n2ccc3cc(Nc4nc5ccccc5s4)ccc32)n1` [Example 2, 2-{5-[(1,3-Benzothiazol-2-yl)amino]-1H-indol-1-yl}-1,3-thiazole-4-carboxylic acid]: the Ki in test [1] is above 10000 nM.

On to `O=C(O)c1csc(N2CCCc3cc(Nc4nc5ccccc5s4)nnc32)n1` [Example 12, 2-{3-[(1,3-Benzothiazol-2-yl)amino]-5H,6H,7H,8H-pyrido[2,3-c]pyridazin-8-yl}-1,3-thiazole-4-carboxylic acid], for which the inhibition constant (Ki) in test [1] came out at 30 nM.

On to `O=C(O)c1csc(-n2ccc3cc(Nc4nc5ccccc5s4)ncc32)n1` [Example 7, 2-{5-[(1,3-Benzothiazol-2-yl)amino]-1H-pyrrolo[2,3-c]pyridin-1-yl}-1,3-thiazole-4-carboxylic acid], for which the Ki in test [1] amounted to 9900 nM.

The compound `CC1Cc2cc(Nc3nc4ccccc4s3)nnc2N1c1nc(C(=O)O)cs1` (centres unmarked) [Example 16, 2-{3-[(1,3-Benzothiazol-2-yl)amino]-6-methyl-5H,6H,7H-pyrrolo[2,3-c]pyridazin-7-yl}-1,3-thiazole-4-carboxylic acid] gave a Ki in test [1] of 120 nM.

The compound `O=C(O)c1csc(N2CCCc3cc(Nc4nc5ccccc5s4)ccc32)n1` [Example 1, 2-{6-[(1,3-Benzothiazol-2-yl)amino]-1,2,3,4-tetrahydroquinolin-1-yl}-1,3-thiazole-4-carboxylic acid] displayed a Ki in test [1] of 37000 nM.

As to `Cc1nc(Nc2nnc3c(c2C)CCN3c2nc(C(=O)O)cs2)sc1C` [Example 19, 2-{3-[(4,5-Dimethyl-1,3-thiazol-2-yl)amino]-4-methyl-5H,6H,7H-pyrrolo[2,3-c]pyridazin-7-yl}-1,3-thiazole-4-carboxylic acid], the affinity in test [1], expressed as Ki, was 3300 nM.

`O=C(O)c1csc(N2CCOc3cc(Nc4nc5ccccc5s4)ccc32)n1` [Example 4, 2-{7-[(1,3-Benzothiazol-2-yl)amino]-3,4-dihydro-2H-1,4-benzoxazin-4-yl}-1,3-thiazole-4-carboxylic acid] registered a Ki in test [1] above 10000 nM.

In test [1], `Cc1c(Nc2nc3ccccc3s2)nnc2c1CCCCN2c1ccc(-c2cnn(CC34CC5CC(CC(C5)C3)C4)c2C)c(C(=O)O)n1` [Example 29, 3-{1-[(Adamantan-1-yl)methyl]-5-methyl-1H-pyrazol-4-yl}-6-{3-[(1,3-benzothiazol-2-yl)amino]-4-methyl-5H,6H,7H,8H,9H-pyridazino[3,4-b]azepin-9-yl}pyridine-2-carboxylic acid] showed an inhibition constant (Ki) of 9.6 nM.

Turning to `Cc1c(Nc2nc3ccccc3s2)nnc2c1CCCN2c1nc(C(=O)O)c(CCCOc2ccc(CCCN3CCC3)cc2F)s1` [Example 67, 5-[3-[4-[3-(Azetidin-1-yl)propyl]-2-fluoro-phenoxy]propyl]-2-[3-(1,3-benzothiazol-2-ylamino)-4-methyl-6,7-dihydro-5H-pyrido[2,3-c]pyridazin-8-yl]thiazole-4-carboxylic acid], the Ki in test [2] turned out to be 0.0032 nM. Moreover, the IC50 in the test with H146 cells was found to be 14.6 nM; in the test with MOLT-4 cells, 7.4 nM.

`Cc1c(Nc2nc3ccccc3s2)nnc2c1CCCN2c1nc(C(=O)O)c(CCCOc2cc3c(cc2F)CCN(C)C3)s1` [Example 66, 2-{3-[(1,3-Benzothiazol-2-yl)amino]-4-methyl-5H,6H,7H,8H-pyrido[2,3-c]pyridazin-8-yl}-5-{3-[(6-fluoro-2-methyl-1,2,3,4-tetrahydroisoquinolin-7-yl)oxy]propyl}-1,3-thiazole-4-carboxylic acid]: in test [2], the Ki is 0.012 nM. The figures for the IC50 with H146 cells and in the test on MOLT-4 cells were 8.22 nM and 2.01 nM, respectively.

In the case of `O=C(O)c1csc(-n2ccc3cc(Nc4nc5ccccc5s4)nnc32)n1` [Example 8, 2-{3-[(1,3-Benzothiazol-2-yl)amino]-7H-pyrrolo[2,3-c]pyridazin-7-yl}-1,3-thiazole-4-carboxylic acid], the Ki in test [1] was found to be 1100 nM.

As to `Cc1c(Nc2nc3ccccc3s2)nnc2c1CCCN2c1nc(C(=O)O)c(CCCOc2ccc(CCCN3CCC4(CC3)CNC(=O)C4)cc2F)s1` [Example 73, 2-[3-(1,3-Benzothiazol-2-ylamino)-4-methyl-6,7-dihydro-5H-pyrido[2,3-c]pyridazin-8-yl]-5-[3-[2-fluoro-4-[3-(3-oxo-2,8-diazaspiro[4.5]decan-8-yl)propyl]phenoxy]propyl]thiazole-4-carboxylic acid], the Ki in test [2] was determined as 0.0025 nM. For the same compound, the values for the IC50 with H146 cells and with MOLT-4 cells were 14.7 nM and 6.54 nM, respectively.

For `Cc1c(Nc2nc3ccccc3s2)nnc2c1CCCN2c1nc(C(=O)O)c(CCCOc2ccc(CCCN3CCN(C)CC3)cc2F)s1` [Example 68, 2-[3-(1,3-Benzothiazol-2-ylamino)-4-methyl-6,7-dihydro-5H-pyrido[2,3-c]pyridazin-8-yl]-5-[3-[2-fluoro-4-[3-(4-methylpiperazin-1-yl)propyl]phenoxy]propyl]thiazole-4-carboxylic acid], in test [2], the inhibition constant (Ki) is 0.0038 nM. The results for the IC50 in the test with H146 cells and in the test with MOLT-4 cells were 10.4 nM and 2.91 nM, respectively.

Regarding `Cc1c(Nc2nc3ccccc3s2)nnc2c1CCCN2c1nc(C(=O)O)c(CCCOc2ccc(OCCN(C)C)cc2)s1` [Example 44, 2-{3-[(1,3-Benzothiazol-2-yl)amino]-4-methyl-5H,6H,7H,8H-pyrido[2,3-c]pyridazin-8-yl}-5-(3-{4-[2-(dimethylamino)ethoxy]phenoxy}propyl)-1,3-thiazole-4-carboxylic acid], the Ki in test [2] turned out to be 0.0015 nM. Further, the figures for the IC50 in the test with H146 cells and with MOLT-4 cells were 10.7 nM and 4.04 nM, respectively.

With `CNCC#Cc1ccc(OCCCc2sc(N3CCc4c3nnc(Nc3nc5ccccc5s3)c4C)nc2C(=O)O)c(F)c1` [Example 37, 2-[3-(1,3-Benzothiazol-2-ylamino)-4-methyl-5,6-dihydropyrrolo[2,3-c]pyridazin-7-yl]-5-[3-[2-fluoro-4-[3-(methylamino)prop-1-ynyl]phenoxy]propyl]thiazole-4-carboxylic acid], the Ki in test [2] was found to be 0.0077 nM. The IC50 with H146 cells worked out at 10.2 nM; with MOLT-4 cells, 4.61 nM.

Take `CNCCOC1Cc2c(nnc(Nc3nc4ccccc4s3)c2C)N(c2nc(C(=O)O)c(CCCOc3ccc(C#CCN(C)C)cc3F)s2)C1` (centres unmarked) [Example 65, 2-{3-[(1,3-Benzothiazol-2-yl)amino]-4-methyl-6-[2-(methylamino)ethoxy]-5H,6H,7H,8H-pyrido[2,3-c]pyridazin-8-yl}-5-(3-{4-[3-(dimethylamino)prop-1-yn-1-yl]-2-fluorophenoxy}propyl)-1,3-thiazole-4-carboxylic acid]: in test [2], the Ki was 0.005 nM. Besides, the half-maximal inhibitory concentration (IC50) came to 3.98 nM with H146 cells and 26.6 nM in the test with MOLT-4 cells.

Regarding `Cc1c(Nc2nc3ccccc3s2)nnc2c1CCCN2c1nc(C(=O)O)c(CCCOc2ccc(CCCN3CCCCC3)cc2F)s1` [Example 71, 2-[3-(1,3-Benzothiazol-2-ylamino)-4-methyl-6,7-dihydro-5H-pyrido[2,3-c]pyridazin-8-yl]-5-[3-[2-fluoro-4-[3-(1-piperidyl)propyl]phenoxy]propyl]thiazole-4-carboxylic acid], the Ki in test [2] worked out at 0.0045 nM. The half-inhibitory concentration (IC50) with H146 cells was found to be 9.3 nM; in the test on MOLT-4 cells, 2.11 nM.

Regarding `Cc1c(Nc2nc3ccccc3s2)nnc2c1CCCN2c1nc(C(=O)O)c(CCCOc2ccc(C#CCN3CCC(F)(F)CC3)cc2F)s1` [Example 49, 2-{3-[(1,3-Benzothiazol-2-yl)amino]-4-methyl-5H,6H,7H,8H-pyrido[2,3-c]pyridazin-8-yl}-5-(3-{4-[3-(4,4-difluoropiperidin-1-yl)prop-1-yn-1-yl]-2-fluorophenoxy}propyl)-1,3-thiazole-4-carboxylic acid], the Ki in test [2] amounted to 0.064 nM. The values for the IC50 with H146 cells and in the test with MOLT-4 cells were 33.4 nM and 2.13 nM, respectively.
